Tested on: CMs

CC(C)C[C@H](NC(=O)[C@H](Cc1ccccc1)NC(=O)c1cnccn1)B(O)O [bortezomib]
fragmentation frequency and severity compared with SARS-CoV-2 (human): much more infrequently and less severely than SARS-CoV-2
induction of myofibril fragmentations in CMs (no virus, bortezomib only at high doses (1 uM and 10 uM tested), doxorubicin 20 nM and 200 nM (Table 1A)): induced myofibril fragmentations

Source: US20240295544A1 (priority 2020, published 2024)
